Consider one compound from ChEMBL document CHEMBL1121511, “Antileukemic compounds derived from the chemical modification of macrocyclic trichothecenes. 1. Derivatives of verrucarin A” (1980).

This test deals with P388. Nature of the test: Antileukemic activity in vivo against P-388 mouse leukemia cell expressed as Dose. Type of test: functional.

Molecules are shown by their SMILES.

`CC(=O)OC1C(=O)OC[C@]23CC[C@H](C)C[C@H]2O[C@@H]2C[C@@H](OC(=O)/C=C\C=C\C(=O)OCCC1C)[C@@]3(C)C21CO1` (stereo partly specified) [VERRUCARIN A ACETATE]: the Dose is recorded as greater than 1.
